Measurements reported in ChEMBL document CHEMBL3044738, “Synthesis of analogues of antihyperglycemic lead karanjin” (2011).

Legend:
Rattus norvegicus [1] = assay: Antihyperglycemic activity in albino Rattus norvegicus Sprague-Dawley (rat) streptozotocin-induced diabetic model assessed as effect on AUC of blood glucose level at 100 mg/kg, po after 24 hr; format: functional
Rattus norvegicus [2] = assay: Antihyperglycemic activity in albino Rattus norvegicus Sprague-Dawley (rat) streptozotocin-induced diabetic model assessed as effect on AUC of blood glucose level at 100 mg/kg, po after 5 hr; format: functional

CC(C)Oc1c(-c2ccccc2)oc2c(ccc3occc32)c1=O [3-O-ISOPROPYLKARANJONOL]
Activity (Rattus norvegicus [1]): -15.4% | Activity (Rattus norvegicus [2]): -26.9%

O=C(COc1c(-c2ccccc2)oc2c(ccc3occc32)c1=O)c1ccccc1 [3-O-(2-OXO-2-PHENYL-ETHYL)-KARANJONOL]
Activity (Rattus norvegicus [1]): 22.9% | Activity (Rattus norvegicus [2]): 15.4%

COc1c(-c2ccccc2)oc2c3c(ccc2c1=O)OCC3 [2',3'-DIHYDROKARANJIN]
Activity (Rattus norvegicus [1]): 9.8% | Activity (Rattus norvegicus [2]): 6.2%

O=c1c(O)c(-c2ccccc2)oc2c1ccc1occc12 [KARANJONOL]
Activity (Rattus norvegicus [1]): -39% | Activity (Rattus norvegicus [2]): -37.2%

CN(C)C(=N)NC(=N)N [METFORMIN]
Activity (Rattus norvegicus [1]): 25% | Activity (Rattus norvegicus [2]): -26.7%

CCN(CC)CC(O)COc1c(-c2ccccc2)oc2c(ccc3occc32)c1=O (stereo not given) [3-(3-DIETHYLAMINO-2-HYDROXY-PROPYL)-KARANJONOL]
Activity (Rattus norvegicus [1]): -37% | Activity (Rattus norvegicus [2]): -4.8%

O=c1c(O)c(-c2ccccc2)oc2c3c(ccc12)OCC3 [2',3'-DIHYDROKARANJONOL]
Activity (Rattus norvegicus [1]): 5.3% | Activity (Rattus norvegicus [2]): 7%

COc1c(-c2ccccc2)oc2c(ccc3occc32)c1=O [KARANJIN]
Activity (Rattus norvegicus [1]): -42.6% | Activity (Rattus norvegicus [2]): -30.8%

CC(=O)OC[C@H]1O[C@@H](Oc2c(-c3ccccc3)oc3c(ccc4occc43)c2=O)[C@H](OC(C)=O)[C@@H](OC(C)=O)[C@@H]1OC(C)=O [3-OTETRAACETYLGLUCOPYRANOSYLKARANJONOL]
Activity (Rattus norvegicus [1]): 0.5% | Activity (Rattus norvegicus [2]): 9.7%

C=CCOc1c(-c2ccccc2)oc2c(ccc3occc32)c1=O [3-O-ALLYLKARANJONOL]
Activity (Rattus norvegicus [1]): -16.6% | Activity (Rattus norvegicus [2]): -33%
